Inhibition and IC50 data for twelve compounds are collected here from PubChem BioAssay AID434995 (Southern Research Specialized Biocontainment Screening …, 2010).

Active and inactive are the calls of the source. The rule behind the calls is not given here.

Assay [1] in a line: PhoP regulon inhibitors in S. Typhi, SAR follow-up, purified and synthesized compounds, round 3 (AID 434995). As to conditions: S. Typhi PhoP-regulated promoter GFP reporter, 4 h.
For assay [2], the system named is S. Typhi PhoP-regulated promoter GFP reporter, 4 h. The assay is described as above.

One may read the inhibition as the relative decrease from the control value, in per cent. As to `N#Cc1ccccc1NC(=S)NCc1ccc(Cl)cc1`, the inhibition in assay [1] (at 150 µM (top of the series)) is -27.4% (inactive).

In the case of `Cc1ccccc1CNC(=S)Nc1ccncc1`, the inhibition in assay [1] (at 150 µM (top of the series)) was -37.8% (inactive).

Turning to `O=C(Nc1cccc(I)c1)N1CCCN(Cc2ccccc2F)C1`, in assay [1] (at 150 µM (top of the series)), the inhibition is -16.5% (inactive).

As for `N#Cc1ccc(NC(=S)NCc2ccc(Cl)cc2)cc1`, the inhibition in assay [1] (at 150 µM (top of the series)) was -25.7% (inactive).

Regarding `COc1ccccc1CNC(=S)Nc1ccncc1`, in assay [1] (at 150 µM (top of the series)), the inhibition was 11.4% (inactive).

As to `Cc1ccc(NC(=O)N2CCCN(Cc3ccccc3F)C2)cc1`, the inhibition in assay [1] (at 150 µM (top of the series)) is -12.7% (inactive).

Turning to `O=C(Nc1cccc(F)c1)N1CCCN(Cc2ccccc2F)C1`, the inhibition in assay [1] (at 150 µM (top of the series)) is 25.8% (inactive).

In general, IC50 refers to the midpoint of a concentration-inhibition curve. Consider `O=C(Nc1ccc(Cl)cc1)N1CCCN(Cc2ccccc2Br)C1`, for which the IC50 in assay [2] was 116 µM.

`O=C(Nc1ccc(Cl)cc1)N1CCCN(Cc2ccc(Br)cc2)C1`: the inhibition in assay [1] (at 75 µM (top of the series)) was -28.5% (inactive).

Regarding `O=C(Nc1ccc(I)cc1)N1CCCN(Cc2ccccc2F)C1`, the concentration for half-maximal inhibition (IC50) in assay [2] was 81.6 µM.

In the case of `O=C(Nc1cccc(C(F)(F)F)c1)N1CCCN(Cc2ccccc2F)C1`, the inhibition in assay [1] (at 150 µM (top of the series)) is 8.86% (inactive).

For `S=C(NCCc1ccc(Cl)cc1)Nc1ccncc1`, the half-maximal inhibitory concentration (IC50) in assay [2] was 20.7 µM.
